Results on one substance are retold here after patent publication US20020106347A1, “Cytokines and their use in treatment and/or prophylaxis of breast cancer” (priority 1995, published 2002).

Test [1] relates to ER in MCF-7 cells. Briefly: ER expression by antibody staining on chamber slides. The format is cell-based, human. The following applies: MCF-7, 6 days. The method, then: (§1) MCF-7 cells were grown on chamber slides for 6 days in RPMI/10% (v/v) BCS with the following growth factors, prior to being stained with an antibody specific for ER. […] Cells stained brown indicate ER positivity.
as §1

The subject of test [2] is MCF-7 cells. Briefly: Northern analysis of mRNA expression after OSM. Format: cell-based, human. The note with it: OSM 10 ng/ml. The method, then: FIG. 12 is a photographic representation showing effect of OSM on the expression of Transforming Growth Factor α (TGFα), Epidemal Growth Factor Receptor (EGFR), Prolactin Receptor (PRLR), Estrogen Receptor (ER) and LIF mRNA. Cells growing in the presence of 10% (v/v) BCS were treated with OSM (10 ng/ml) and at the indicated time points duplicate 150 cm^2 flasks were harvested and mRNA extracted for Northern analysis. Results for control cells (C) are also shown. The same filter has been probed successively with a ^32P-labelled cDNA corresponding to each mRNA species. mRNA loading was evaluated by reprobing the filter with a fragment complementary to GAPDH. mRNA species of the following sizes were obtained: TGFα, 4.8 kb; PRLR, 10.5 and 8.6 kb; EGFR, 10.5 and 5.8 kb; ER, 6.5 and 3.8 kb and LIF, approx. 4.8 kb.
Cells havested from duplicate flasks were pooled and poly A+ mRNA extracted by an oligo-dT cellulose procedure (Boehringer Mannheim). Northern analysis was performed using 5 μg RNA per lane. Membranes (Hybond-C extra-Amersham) were hybridised (42° C. overnight) with probes labelled with α-^32P dCTP (bresatec). The membranes were washed at a stringency of 0.2× SSC (30 mM NaCl, 3 mM sodium citrate, pH 7.0)-0.1% (w/v) sodium dodecyl sulfate at 65° C. and exposed to Kodak X-Omat film at −70° C. mRNA loading was estimated by hybridising membranes with a 1.3 kb cDNA complementary to GAPDH.
Cells growing in the presence of 10% (v/v) BCS were treated with OSM (10 ng/ml) and at the indicated time points duplicate 150 cm^2 flasks were harvested and mRNA extracted for Northern analysis. Results for control cells (C) are also shown. The same filter has been probed successively with a ^32P-labelled cDNA corresponding to each mRNA species. mRNA loading was evaluated by reprobing the filter with a fragment complementary to GAPDH. mRNA species of the following sizes were obtained: TGFα, 4.8 kb; PRLR, 10.5 and 8.6 kb; EGFR, 10.5 and 5.8 kb; ER, 6.5 and 3.8 kb and LIF, approx. 4.8 kb.

The mark [3] stands for this setting: from 2 hours, maintained for 48 hours.

Consider oncostatin M [OSM], for which the “cells staining very weakly for ER” value in test [1] was determined as 50%. Besides, in test [2], the “abundance of TGFα transcript (in words)” value is reported as “equivalent to control cells” and the “level of LIF transcript (in words)” value was “upregulates”. Further, the “elevation of EGFR mRNA abundance” value in test [2] (between 4-12 hours) is “at least 5 fold”. Further, in test [2] (setting [3]), the “level of expression of Estrogen Receptor (ER) mRNA (in words)” value is “down regulate” and the “level of expression of Prolactin Receptor (PRLR) mRNA (in words)” value was “down regulate”.
